# Measurements reported in paper PMC4775864 (Theranostics, 2016).
# No end group written: not given here.
# Target: T1, endogenous EMMPRIN (Mus musculus, UniProt P18572)
# T1 sequence (P18572 22-273 isoform P18572-2 limits assumed): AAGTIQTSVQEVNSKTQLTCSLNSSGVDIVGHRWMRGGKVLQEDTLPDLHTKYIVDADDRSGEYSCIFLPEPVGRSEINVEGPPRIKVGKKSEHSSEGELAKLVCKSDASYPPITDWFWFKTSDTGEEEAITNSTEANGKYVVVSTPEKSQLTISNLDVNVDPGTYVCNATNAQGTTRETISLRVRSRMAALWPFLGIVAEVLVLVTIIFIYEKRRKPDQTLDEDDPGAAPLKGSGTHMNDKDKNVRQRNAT
# Assay: Affinity measurements: fluorescence binding to adherent HL1 cells
sequence,measurement,value
YKLPGHHHHYRP [AP-9],Kd,8 ± 0.6 nM
